Assay results: US11167046B2, “IR dyes for fluorescence imaging” (LI-COR, INC., priority 2014, dated 2021)
Like-named read-outs stand apart in the source and are kept apart here.

Key:
[1] = Fluorescent signal analysis of mouse urine; conditions: urine extracted with acetonitrile:methanol; Odyssey CLx, 800 nm
[2] = system: A549 cells; assay: In vitro cell-based assay of non-specific binding, A549 cells; conditions: dyes compared to 800CW
Description: (§1) FIGS. 2A, and 2B illustrate in vitro cell-based analyses for A549 cells (A) and A431 cells (B).
(§2) In vitro cell-based assays with two carcinoma cell lines (A431 and A549) were done to assess non-specific binding of the compound of Formula 1 and the compound of Formula 2. The dyes were compared to 800CW.
(§3) The fluorescence in each well was quantified with the instrument software.

[3] = Excised organ evaluation at 24 hrs and 72 hrs; type: in vivo, mouse
Description: FIGS. 11A-11H show images of various mouse organs after administration. Fluorescence images of various mouse organs at 24 and 72 hrs post-administration for the comparative control (FIG. 11A), compound of Formula 1 (FIGS. 11C and 11E) and compound of Formula 2 (FIGS. 11B and 11D). Organs examined included: heart (Ht), lungs (Ln), kidney (Kd), liver (Lv), spleen (Spl), intestine (Int), brain (Br), and muscle (Ms). […] FIGS. 11F-11H show intraoperative fluorescence (800 nm, compound of Formula 2) (FIG. 11G), white light (FIG. 11F), and composite images of the liver, gall bladder, and bile duct for compound of Formula 2 (0.1 nmole) (FIG. 11H).
Fluorescent signal intensities of various organs were examined at 24 hrs and 72 hrs for the compound of Formula 1 and the compound of Formula 2 (FIG. 11A-11E). Organs examined included: heart (Ht), lungs (Ln), kidney (Kd), liver (Lv), spleen (Spl), intestine (Int), brain (Br), and muscle (Ms).

[4] = mouse, in vivo
[5] = system: A431 cells; assay: In vitro cell-based assay of non-specific binding, A431 cells; conditions: dyes compared to 800CW
Description: as §1, §2, §3

[6] = Elimination routes in mice: serial whole animal imaging and organ imaging; type: in vivo, nude mice; conditions: for plasma protein binding: inferred from liver retention / clearance; for excretion / elimination route: 1 nmole by tail vein injection; for signal in kidneys and liver, organ 1/10th LUT scale: organs harvested after 24 hours, 1 nmole tail vein
Protocol: This example describes an experiment to evaluate the excretion of the dyes described herein from animals injected with such. The dyes tested were stable cyanine dyes (IRdyes): 800CW, 800BK-sulfonate (compound of Formula 1; 800BK or BK) and 800BK-NOS (compound of Formula 2; 800NOS or NOS). In this study 12 nude mice (3 per treatment group) were injected with either (1) no probe (control group); (2) 800CW; (3) 800NOS; or (4) 800BK. The three probes (800CW-1166 g/mole (should have been 1091.1 g/mole), 800NOS-1011.09 g/mole, and 800BK-1113.14 g/mole) were dissolved in PBS. A spot test of the three probes was performed to detect the fluorescent signal when diluted to the injection dose of 1 nmole/100 μl (FIG. 12).
The mice received 1 nmole of dye by tail vein injection. The mice were imaged serially over 24 hours after IV injection: 5 minutes, 1 hour, 2 hours, 4 hours, 6 hours and 24 hours after injection. A representative series of images are presented in FIGS. 13A-13C of one animal per dye. All the data was normalized to the same LUT. A control mouse (no probe) was used as a reference (no signal control). Imaging was performed using the Pearl® Trilogy Imaging System (LI-COR®).
The mice were then sacrificed and their organs and tissue (i.e., liver, kidney, lungs, spleen and muscle) were harvested. The organs were imaged to detect fluorescence. When the same LUT was used for the animal and organ images, fluorescence in the organs was not detectable. As such, the low end of the animal scale was expanded such that the images of the organs could be evaluated (FIG. 14). For example, the “Organs 1/10th scale” was used for the images of FIGS. 15A-15D and the “Organs 1/100th scales was used for the images of FIGS. 16A-16D.

[7] = Excised organs imaged at 24 hrs; type: in vivo, nude mice; conditions: for detected in the brain: excised organs at 24 hrs
Protocol: (§4) Animals injected with the probes were imaged over time using the 800 fluorescence channel of the Pearl Impulse Imaging System (LI-COR Biosciences). Clearance profiles for 800CW, the compound of Formula 1, and the compound of Formula 2 were carried out in nude mice (dose of 1 nmole for all compounds). Serial images and excised organs were evaluated over a 24 hr period. A Pearl Impulse small animal imaging system was used for all animal and organ image acquisitions.
Organs were excised at 24 hrs and imaged.

[8] = Clearance profiles by whole-animal fluorescence imaging (dorsal and ventral) in nude mice; type: in vivo
Protocol: as §4
Non-invasive imaging will not capture signals for the full depth of the animal but the intensity values are useful to show a relative trend.
Another way of examining fluorescence signals is by measuring the % of the compound remaining at a particular time point. The 30 min time point is the baseline to which other time points are normalized.
The percent signal remaining at each time is shown with the 30 min time point post-injection, which is used as the baseline.

[9] = Excitation and emission of the NIR imaging probe; type: physicochemical
Description: The NIR imaging probe used was the compound of Formula 1; excitation 773 nm and emission 790 nm or independently, Formula 2, excitation 772 nm and emission 787 nm.

[10] = Solubility in water or aqueous media; type: physicochemical; conditions: for concentration when re-suspended in water: in some embodiments; for solubility in water: stated as 'can be'
[11] = Biliary tract imaging, comparison with ICG and dose response; type: in vivo, mouse; conditions: for time post-intravenous administration by which gall bladder is visible: continues visible at 2 hrs and 5 hrs
Protocol: A Pearl Impulse small animal imaging system was used for all animal and organ image acquisitions.
A comparison of the dose responses for the compound of Formula 2 are shown in FIG. 10B (1 nmole), FIG. 10C (0.5 nmole), and FIGS. 10D and 10E (0.1 nmole) at time periods of 1 min, 30 min, 2 hrs, 5 hrs, and 24 hrs. All images are presented using the same LUT table except FIG. 10E where the LUT for FIG. 10D has been reduced to brighten the 800 nm signal so they are visible.

[12] = 30 min post-injection (baseline), 1 nmole, whole body, ventral view
[13] = 120 min post-injection, normalized to 30 min, 1 nmole
[14] = 300 min post-injection, normalized to 30 min, 1 nmole
[15] = 1440 min post-injection, normalized to 30 min, 1 nmole

Structure (SMILES) | non-specific binding [2] | fluorescent signal in excised organs ([3]; 24 hrs post administration) | fluorescent signal in excised organs ([3]; 72 hrs post administration) | non-specific binding [5] | plasma protein binding [6] | retention time in the liver ([6]; nude mice, 1 nmole IV) | excretion / elimination route ([6]; nude mice) | signal in kidneys and liver, organ 1/10th LUT scale [6] | detected in the brain [7] | clearance pattern (route), ventral images ([8]; 1 nmole) | percent signal remaining [8, 12] [%] | percent signal remaining [8, 13] [%] | percent signal remaining [8, 14] [%] | percent signal remaining [8, 15] [%] | emission [9] [nm] | excitation [9] [nm] | concentration when re-suspended in water [10] | solubility in water [10] | other results
CC1(C)C(/C=C/C=C/C=C/C=C2/N(CCCCS(=O)(=O)[O-])c3ccc4ccccc4c3C2(C)C)=[N+](CCCCS(=O)(=O)[O-])c2ccc3ccccc3c21.[Na+] [ICG, indocyanine green] |  |  |  |  |  |  |  |  |  |  |  |  |  |  |  |  |  |  | fluorescent signal in urine [1]: No fluorescent signal
CC1(C)C(/C=C/C2=C(Oc3ccccc3)C(=C/C=C3/N(CCCCS(=O)(=O)O)c4ccc(S(=O)(=O)[O-])cc4C3(C)C)/CCC2)=[N+](CCCCS(=O)(=O)O)c2ccc(S(=O)(=O)O)cc21 [Compound of Formula 2, 2-((E)-2-((E)-3-(2-((E)-3,3-dimethyl-5-sulfonato-1-(4-sulfonatobutyl)indolin-2-ylidene)ethylidene)-2-phenoxycyclohex-1-en-1-yl)vinyl)-3,3-dimethyl-1-(4-sulfonatobutyl)-3H-indol-1-ium-5-sulfonate] | significant increase in non-specific binding compared to either the compound of Formula 1 and 800CW by two-fold | some signal in the liver and kidney | diminished substantially | significant increase in non-specific binding compared to either the compound of Formula 1 and 800CW by two-fold | low plasma protein binding activity | very short retention time in the liver | eliminated from the body via the biliary tract (liver, gall bladder and bile ducts) and intestines | detectable signal | None | clears through the liver | 100 | 70 | 14 | 1.4 | 787 | 772 | at least 200 mg/mL | highly soluble in water | fluorescent signal in urine [4]: slight fluorescence; intestinal signal ([6]; 24 hours post injection): barely detectable; clearance from the whole body to the biliary system ([6]; nude mice, 1 nmole IV): rapid; excretion into the intestines ([6]; nude mice, 1 nmole IV): rapid excretion into the intestines; time at which the liver was visible ([6]; nude mice, 1 nmole IV): 15 min; time during which predominant signal was in the intestines ([6]; nude mice, 1 nmole IV): 2 to 6 h; liver signals, excised organs ([7]; 24 hrs post injection): lower liver signals at 24 hrs when compared to 800CW and the compound of Formula 1; percent signal remaining ([8]; 120 min post-injection, normalized to 30 min, 1 nmole, listed as compound of Formula 2): greatest reduction; fluorescence signal, dorsal view ([8]; 2 hrs post injection, 1 nmole): high signal, emanating in the liver region; whole body signal ([8]; 5 hr post injection, 1 nmole): low compared to 800CW and the compound of Formula 1; whole body fluorescence signal ([8]; ventral view, 1 nmole): lower overall than the signal for 800CW and the compound of Formula 1; detection signal in images ([11]; 0.1 nmole dose, same scale as 1 nmole and 0.5 nmole series): very low detection signal; gall bladder target region visibility ([11]; 0.1 nmole dose, scale adjusted (FIG. 10E)): visible on a very low background; time post-intravenous administration by which gall bladder is visible ([11]; 0.5 nmole dose): ≤ 30 min; time post-intravenous administration by which gall bladder is visible ([11]; 1 nmole dose): ≤ 30 min
CC1(C)C(/C=C/C2=C(Oc3ccc(S(=O)(=O)O)cc3)C(=C/C=C3/N(CCCCS(=O)(=O)O)c4ccc(S(=O)(=O)[O-])cc4C3(C)C)/CCC2)=[N+](CCCCS(=O)(=O)O)c2ccc(S(=O)(=O)O)cc21 [Compound of Formula 1, 2-((E)-2-((E)-3-(2-((E)-3,3-dimethyl-5-sulfonato-1-(4-sulfonatobutyl)indolin-2-ylidene)ethylidene)-2-(4-sulfonatophenoxy)cyclohex-1-en-1-yl)vinyl)-3,3-dimethyl-1-(4-sulfonatobutyl)-3H-indol-1-ium-5-sulfonate] | more comparable to 800CW | some signal in the liver and kidney | diminished substantially | more comparable to 800CW | increased (higher) plasma protein binding of 800BK than 800CW | longer retention time in the liver compared to 800CW and 800NOS | excreted renally | detectable signal | None | clear rapidly via the kidney | 100 | 81 | 19 | 1.4 | 790 | 773 | at least 200 mg/mL | highly soluble in water | primary elimination route [4]: renal; signal in the liver ([6]; excised organs, 24 hours): higher signal compared to 800CW; retention in liver and kidney, excised organs ([7]; 24 hrs post injection): retained at higher levels in the liver and kidney compared to the compound of Formula 2; bladder signal, ventral images ([8]; 1 nmole): strongest signal; movement through tissues and retention in organs ([8]; in vivo data): moves rapidly through the tissues but is retained for an extended period in organs; clearance (whole body fluorescence) compared to compound of Formula 2 ([8]; ventral view, 1 nmole): slower clearance
